Results taken from ChEMBL document CHEMBL1201862, “PubChem BioAssay data set” (2004).
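Tested at 5 concentrations; 48 h exposure; 96-well plates; endpoints linearly interpolated, else capped at highest concentration. The concentration for 50% growth inhibition is given as GI50.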 The source made the active and inactive calls. Cut-off read from the data, not from the text of the source: active = GI50 up to about 1.1 µM and inactive = higher.

What was measured:
Assay in all cases: DTP human tumour cell line panel, 48 h
SN12C = tested on: SN12C
HL-60 = tested on: HL-60
DLD-1 = tested on: DLD-1
SK-MEL-28 = tested on: SK-MEL-28
U-251 = tested on: U-251
SNB-78 = tested on: SNB-78
SK-MEL-5 = tested on: SK-MEL-5
IGROV-1 = tested on: IGROV-1
SNB-75 = tested on: SNB-75
HT-29 = tested on: HT-29
UACC-62 = tested on: UACC-62
LXFL 529 = tested on: LXFL 529
SK-OV-3 = tested on: SK-OV-3
SR = tested on: SR
HCT-15 = tested on: HCT-15
OVCAR-3 = tested on: OVCAR-3
ACHN = tested on: ACHN
OVCAR-5 = tested on: OVCAR-5
K562 = tested on: K562
SK-MEL-2 = tested on: SK-MEL-2
SF-539 = tested on: SF-539
HCT-116 = tested on: HCT-116
HOP-18 = tested on: HOP-18
RPMI-8226 = tested on: RPMI-8226
NCI-H23 = tested on: NCI-H23
CCRF-CEM = tested on: CCRF-CEM
UACC-257 = tested on: UACC-257
Malme-3M = tested on: Malme-3M
NCI-H226 = tested on: NCI-H226
M19-MEL = tested on: M19-MEL
EKVX = tested on: EKVX
COLO 205 = tested on: COLO 205
NCI-H460 = tested on: NCI-H460
SF-295 = tested on: SF-295
HCC 2998 = tested on: HCC 2998
HOP-62 = tested on: HOP-62
HOP-92 = tested on: HOP-92
OVCAR-4 = tested on: OVCAR-4
SNB-19 = tested on: SNB-19
XF498 = tested on: XF498
CAKI-1 = tested on: CAKI-1
SW-620 = tested on: SW-620
A549 = tested on: A549
RXF 393 = tested on: RXF 393
TK-10 = tested on: TK-10
UO-31 = tested on: UO-31
M14 = tested on: M14
SF-268 = tested on: SF-268
DMS-114 = tested on: DMS-114
KM-20L2 = tested on: KM-20L2
MOLT-4 = tested on: MOLT-4
OVCAR-8 = tested on: OVCAR-8
NCI-H522 = tested on: NCI-H522
LOX IMVI = tested on: LOX IMVI
786-0 = tested on: 786-0
DMS-273 = tested on: DMS-273
KM12 = tested on: KM12
A498 = tested on: A498

SMILES: O=C(Nc1ccc(Cl)cc1)c1cc2cc(/N=N/c3ccccc3Cl)ccc2oc1=O
- GI50 (SN12C): 18.7 µM (inactive)
- GI50 (HL-60): 2.14 µM (inactive)
- GI50 (DLD-1): 9.64 µM (inactive)
- GI50 (SK-MEL-28): 15.9 µM (inactive)
- GI50 (U-251): 14.2 µM (inactive)
- GI50 (SNB-78): 22.9 µM (inactive)
- GI50 (SK-MEL-5): 22.2 µM (inactive)
- GI50 (IGROV-1): 19 µM (inactive)
- GI50 (SNB-75): 24 µM (inactive)
- GI50 (HT-29): 15.2 µM (inactive)
- GI50 (UACC-62): 8.39 µM (inactive)
- GI50 (LXFL 529): 8.11 µM (inactive)
- GI50 (SK-OV-3): 46.9 µM (inactive)
- GI50 (SR): 15.8 µM (inactive)
- GI50 (HCT-15): 2.74 µM
- GI50 (OVCAR-3): 22.2 µM (inactive)
- GI50 (ACHN): 6.3 µM (inactive)
- GI50 (OVCAR-5): 44.6 µM (inactive)
- GI50 (K562): 5.28 µM (inactive)
- GI50 (SK-MEL-2): 18.1 µM (inactive)
- GI50 (SF-539): 14 µM (inactive)
- GI50 (HCT-116): 11.2 µM (inactive)
- GI50 (HOP-18): 33.8 µM (inactive)
- GI50 (RPMI-8226): 4.76 µM (inactive)
- GI50 (NCI-H23): 13.3 µM (inactive)
- GI50 (CCRF-CEM): 2.01 µM (inactive)
- GI50 (UACC-257): 19.2 µM (inactive)
- GI50 (Malme-3M): 18.5 µM (inactive)
- GI50 (NCI-H226): 22.3 µM (inactive)
- GI50 (M19-MEL): 14.3 µM (inactive)
- GI50 (EKVX): 25.5 µM (inactive)
- GI50 (COLO 205): 34.1 µM (inactive)
- GI50 (NCI-H460): 26.8 µM (inactive)
- GI50 (SF-295): 28.7 µM (inactive)
- GI50 (HCC 2998): 18.9 µM (inactive)
- GI50 (HOP-62): 26.9 µM (inactive)
- GI50 (HOP-92): 18.9 µM (inactive)
- GI50 (OVCAR-4): 22 µM (inactive)
- GI50 (SNB-19): 27.5 µM (inactive)
- GI50 (XF498): 24.4 µM (inactive)
- GI50 (CAKI-1): 24.9 µM (inactive)
- GI50 (SW-620): 18.1 µM (inactive)
- GI50 (A549): 29.2 µM (inactive)
- GI50 (RXF 393): 46.9 µM (inactive)
- GI50 (TK-10): 33.3 µM (inactive)
- GI50 (UO-31): 11.6 µM (inactive)
- GI50 (M14): 15.5 µM (inactive)
- GI50 (SF-268): 15.2 µM (inactive)
- GI50 (DMS-114): 5.81 µM (inactive)
- GI50 (KM-20L2): 4.93 µM (inactive)
- GI50 (MOLT-4): 2.58 µM (inactive)
- GI50 (OVCAR-8): 13.4 µM (inactive)
- GI50 (NCI-H522): 21.7 µM (inactive)

SMILES: c1ccc2c(CNCCCCCCCCNCc3cccc4ccccc34)cccc2c1
- GI50 (SN12C): 6.43 µM (inactive)
- GI50 (HL-60): 1.86 µM (inactive)
- GI50 (DLD-1): 2.11 µM (inactive)
- GI50 (SK-MEL-28): 1.9 µM (inactive)
- GI50 (U-251): 1.72 µM (inactive)
- GI50 (SNB-78): 2.24 µM (inactive)
- GI50 (SK-MEL-5): 1.85 µM (inactive)
- GI50 (IGROV-1): 4.55 µM (inactive)
- GI50 (SNB-75): 1.9 µM (inactive)
- GI50 (HT-29): 1.8 µM (inactive)
- GI50 (LOX IMVI): 1.23 µM (inactive)
- GI50 (UACC-62): 1.8 µM (inactive)
- GI50 (LXFL 529): 1.82 µM (inactive)
- GI50 (SK-OV-3): 17.1 µM (inactive)
- GI50 (HCT-15): 1.73 µM
- GI50 (OVCAR-3): 10.6 µM (inactive)
- GI50 (ACHN): 2.9 µM (inactive)
- GI50 (OVCAR-5): 2 µM (inactive)
- GI50 (K562): 0.679 µM (active)
- GI50 (SK-MEL-2): 1.65 µM (inactive)
- GI50 (SF-539): 1.63 µM (inactive)
- GI50 (HCT-116): 1.67 µM (inactive)
- GI50 (HOP-18): 5.41 µM (inactive)
- GI50 (RPMI-8226): 1.67 µM (inactive)
- GI50 (NCI-H23): 3.4 µM (inactive)
- GI50 (CCRF-CEM): 1.85 µM (inactive)
- GI50 (UACC-257): 1.87 µM (inactive)
- GI50 (786-0): 1.73 µM (inactive)
- GI50 (Malme-3M): 1.95 µM (inactive)
- GI50 (NCI-H226): 11.7 µM (inactive)
- GI50 (DMS-273): 2.01 µM (inactive)
- GI50 (M19-MEL): 1.73 µM (inactive)
- GI50 (EKVX): 6.03 µM (inactive)
- GI50 (COLO 205): 1.96 µM (inactive)
- GI50 (NCI-H460): 1.48 µM (inactive)
- GI50 (SF-295): 1.88 µM (inactive)
- GI50 (HOP-62): 16.4 µM (inactive)
- GI50 (HOP-92): 2.49 µM (inactive)
- GI50 (OVCAR-4): 2.3 µM (inactive)
- GI50 (XF498): 1.79 µM (inactive)
- GI50 (CAKI-1): 1.98 µM (inactive)
- GI50 (SW-620): 1.8 µM (inactive)
- GI50 (A549): 2.2 µM (inactive)
- GI50 (RXF 393): 1.74 µM (inactive)
- GI50 (TK-10): 1.66 µM (inactive)
- GI50 (KM12): 1.82 µM (inactive)
- GI50 (A498): 14.7 µM (inactive)
- GI50 (UO-31): 1.87 µM (inactive)
- GI50 (M14): 1.75 µM (inactive)
- GI50 (SF-268): 7.52 µM (inactive)
- GI50 (DMS-114): 1.91 µM (inactive)
- GI50 (KM-20L2): 1.75 µM (inactive)
- GI50 (MOLT-4): 2.02 µM (inactive)
- GI50 (OVCAR-8): 1.86 µM (inactive)
- GI50 (NCI-H522): 1.79 µM (inactive)
